Laboratory results as given in ChEMBL document CHEMBL5608109, “Hepatotoxicity screening of Donated Chemical Probes” (2024).
Structures can show the parent of a compound that is named as a salt. Where a SMILES comes first, the peptide text is derived from it. [ ]: non-standard residue; d: D form. Arg(Me) = CNC(=N)NCCC[C@H](N)C(=O)O; d4Pal = N[C@H](Cc1ccncc1)C(=O)O; azaGly = NNC(=O)O

System: Hepatocyte spheroids
Experiment: This assay model using primary human hepatocyte (PHH) spheroids, which are cultured in Williams E medium. After spheroid formation, cells are exposed to compounds in an FBS-free culture medium. […] Imaging is performed on an Opera Phenix High-Content Screening System, allowing quantification of proliferation as a readout for evaluating the effects of chemical probes on hepatocyte regeneration.
Type: functional
Conditions: read-out: Cell Viability; for viability at 0.1 µM: Concentration 0.1 uM; for viability at 1 µM: Concentration 1 uM; for viability at 10 µM: Concentration 10 uM; for viability at 20 µM: Concentration 20 uM

Row | SMILES | viability at 0.1 µM | viability at 1 µM | viability at 10 µM | viability at 2 µM (Concentration 2 uM) | viability at 20 µM
1 | NC(=O)c1ccc2nc(-c3ccc(C4(N)CCC4)cc3)c(-c3ccccc3)n2n1 [BAY-1125976] | 94.8% (non-toxic) | 75.2% (non-toxic) |  |  | 
2 | COc1ccc2c(O[C@@H]3C[C@H]4C(=O)N[C@]5(C(=O)O)CC5/C=C\CCCCC[C@H](NC(=O)OC5CCCC5)C(=O)N4C3)cc(-c3csc(NC(=O)C(C)C)n3)nc2c1C (stereo partly specified) [BI 1230] |  | 106% (non-toxic) | 0.711% (toxic) |  | 
3 | CCOCCn1cc(C(=O)Nc2ccc(-n3nc(-c4cccnc4)cc3C(F)(F)F)cn2)ccc1=O [BI 1935] |  | 100% (non-toxic) | 34.7% (toxic) |  | 
4 | C[C@H](NC(=O)c1cnc2n1[C@](C)(Cc1ccc(C#N)cc1)C(=O)N2c1cc(Cl)c(F)c(Cl)c1)C(=O)NC1(c2ccccn2)CC1 [BI 1950] |  | 110% (non-toxic) | 121% (non-toxic) |  | 
5 | Cc1c(NC(=O)COc2ccc(Cl)cc2C(=O)c2cc(F)cc(C(F)(F)F)c2)ccc(C(=O)O)c1F [BI 2540] |  | 95.6% (non-toxic) | 93.1% (non-toxic) |  | 
6 | O=C(NC[C@@H]1[C@H]2CN(C(=O)OCc3cc(C(F)(F)F)cc(C(F)(F)F)c3)C[C@@H]12)c1ccc2[nH]nnc2c1 [BI 2545] |  | 119% (non-toxic) | 76.5% (non-toxic) |  | 
7 | CCOC(=O)c1cc2cc(-c3cc(C(=O)NCc4ccc(C(=O)O)cc4)nn3C)ccc2[nH]1 [BI 4394] | 108% (non-toxic) | 106% (non-toxic) |  |  | 
8 | CC(=O)N1CCC(c2ccc(C(=O)NC(=N)N)cc2C(F)(F)F)CC1 [BI 9627] |  | 78.4% (non-toxic) | 106% (non-toxic) |  | 
9 | CCC(=O)N[C@H]1CC[C@@H](C(=O)N(C)c2ccc(-c3nc4ccccc4o3)cc2)C1 [BI 99179] |  | 81.6% (non-toxic) | 55.6% (toxic) |  | 
10 | CS(=O)(=O)c1cc(C2(NC(=O)c3cncc4c3cnn4-c3ccc(F)cc3)CC2)ccn1 [BI 639667] |  |  |  | 60.2% (toxic) | 59.6% (toxic)
11 | CCS(=O)(=O)c1cc2cc(C[C@](O)(CC(C)(C)c3ccc(F)cc3C(N)=O)C(F)(F)F)[nH]c2cn1 [BI 653048] |  | 116% (non-toxic) | 116% (non-toxic) |  | 
12 | CN(C)C(=O)Cn1cc(-c2nc([C@@](C)(c3ccc(-c4cnc(N)nc4)cc3)C3CC3)no2)cn1 [BI 665915] | 104% (non-toxic) | 84.4% (non-toxic) |  |  | 
13 | CC[C@H](CC(=O)O)n1c(=O)c2ncccc2n(Cc2cn(C)c3cc(C)cc(C)c23)c1=O [BI-1942] |  | 53.2% (toxic) | 65.2% (toxic) |  | 
14 | CCC(F)(F)c1cc(N2CCC(S(C)(=O)=O)CC2)nc2sc(C(N)=O)c(N)c12 [BI-605906] |  | 103% (non-toxic) | 134% (non-toxic) |  | 
15 | O=c1nc(-c2ccccn2)sc2ccccc12 [BTZO-1] |  | 99.7% (non-toxic) | 73.5% (non-toxic) |  | 
16 | C=CC(=O)Nc1ccc2[nH]c(=O)n(C3CCN(Cc4ccc(-c5nc6cc[nH]c(=O)c6cc5-c5ccccc5)cc4)CC3)c2c1 [Borussertib] |  | 48.8% (toxic) | 16% (toxic) |  | 
17 | CN(C)CCCN1c2ccccc2Sc2ccc(Cl)cc21 [CHLORPROMAZINE HYDROCHLORIDE] |  |  |  |  | 0.683% (toxic)
18 | CNC(=O)c1ccc(Nc2ncc(C(F)(F)F)c(NCc3nccnc3N(C)S(C)(=O)=O)n2)cc1 [DEFACTINIB] | 46.1% (toxic) | 55.4% (toxic) |  |  | 

Row | SMILES | viability at 0.1 µM | viability at 1 µM | viability at 10 µM | viability at 2 µM (Concentration 2 uM) | viability at 20 µM
19 | Cn1c(C2(NC(=O)c3ccc4c(C5CCCC5)c(-c5ncc(Br)cn5)n(C)c4c3)CCC2)nc2ccc(/C=C/C(=O)O)cc21 [DELEOBUVIR] |  | 135% (non-toxic) | 157% (non-toxic) |  | 
20 | C[C@@H](NC(=O)Nc1cc2[nH]ncc2c(CO)n1)c1ccccc1 [ERKi] |  | 75% (non-toxic) | 75.2% (non-toxic) |  | 
21 | O=C(NCCN1CCOCC1)c1ccc2c(c1)C(=O)c1ccc(Nc3ccc(F)c(NC(=O)c4ccccc4)c3)cc1CC2 [FS-694] |  | 74.8% (non-toxic) | 84.2% (non-toxic) |  | 
22 | CC(=O)Nc1c(F)cc(C(=O)N[C@H]2CC[C@H](O)CC2)cc1O[C@@H](C)c1ccccc1 [GSK046] |  | 96.7% (non-toxic) | 85.2% (non-toxic) |  | 
23 | CNC(=O)c1cc(C(=O)NC2CC2)cn(Cc2ccccc2)c1=O [GSK620] |  | 117% (non-toxic) | 85.9% (non-toxic) |  | 
24 | COCc1nc2cnc3cc(-c4c(C)noc4C)c(OC[C@H]4CCNC4)cc3c2n1[C@H](C)c1ccccc1 [GSK778] |  | 118% (non-toxic) | 64% (toxic) |  | 
25 | Cc1cc2c(-c3ccco3)cnc(N[C@@H]3CCN(C)C[C@H]3C(=O)NC3CCCCC3)c2[nH]c1=O [GSK789] |  | 52.2% (toxic) | 27.6% (toxic) |  | 
26 | CNC(=O)c1cc(C(=O)N[C@H]2[C@@H]3COC[C@@H]32)cc2c1O[C@H](CF)[C@H]2c1ccccc1 [GSK973] |  | 103% (non-toxic) | 88.7% (non-toxic) |  | 
27 | COCCc1ccc(-c2c(C)nc3c(N4CCOCC4)ccnn23)cn1 [JNJ-42396302] |  | 158% (non-toxic) | 160% (non-toxic) |  | 
28 | COc1nc2ccc([C@@](O)(c3ccccc3)C3CCN(C(C)=O)CC3)cc2c(Cl)c1Cc1ccc(-n2cccn2)cc1 [JNJ-54119936] |  | 116% (non-toxic) | 114% (non-toxic) |  | 
29 | CC(=O)Nc1ncc(CN2CCC[C@H](Cc3cc(C)nc(C)c3)C2)s1 [JNJ-65355394] |  | 149% (non-toxic) | 142% (non-toxic) |  | 
30 | CNC(=N)NCCC[C@H](NC(=O)[C@H](CC(C)C)NC(=O)NNC(=O)[C@H](Cc1ccccc1)NC(=O)[C@H](CO)NC(=O)[C@H](CC(N)=O)NC(=O)[C@@H](Cc1ccncc1)NC(=O)[C@H](N)Cc1ccc(O)cc1)C(=O)N[C@@H](Cc1ccccc1)C(N)=O [KISS1-305] (H-[dY][d4Pal]NSF[azaGly]L[Arg(Me)]F-NH2) | 107% (non-toxic) | 98.4% (non-toxic) |  |  | 
31 | CN([C@@H]1CCc2c(CC(=O)O)c3ccccc3n2C1)S(=O)(=O)c1ccc(F)cc1 [MK-7246] |  | 107% (non-toxic) | 111% (non-toxic) |  | 
32 | C[C@@H]1CN(c2cc(-c3n[nH]c4ccc(OC5(C)CC5)cc34)ncn2)C[C@H](C)O1 [MLi-2] | 79.3% (non-toxic) | 79.7% (non-toxic) |  |  | 
33 | O=S(=O)(NC1CCC(c2cc(F)ccc2F)(S(=O)(=O)c2ccc(Cl)cc2)CC1)C(F)(F)F (stereo unspecified) [MRK-560] | 101% (non-toxic) | 76.1% (non-toxic) |  |  | 
34 | Cc1cc(Nc2nccc(C)n2)cc(-c2cnc([C@@]3(O)CC[C@H](C(=O)O)C(C)(C)C3)s2)c1 [MRL-SYKi] | 98.8% (non-toxic) | 95.5% (non-toxic) |  |  | 
35 | CC(C)(O)c1cncc(-c2nc3ccc(F)cc3n2C2CC2)c1 [MSD-CYP11B2] |  | 113% (non-toxic) | 96.6% (non-toxic) |  | 
36 | N#CC1(c2ccccn2)CCN(Cc2cc(C(=O)O)c(=O)n3ccccc23)CC1 [MSD-M1PAM] |  | 112% (non-toxic) | 87.1% (non-toxic) |  | 
